ChEMBL document CHEMBL1201862, “PubChem BioAssay data set” (2004)
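These data come from cells grown in 96-well plates and exposed to compound for 48 hours at five concentrations. GI50 marks 50% less growth.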 Activity calls are given as the source filed them. No stated cut-off is given here; in the data, active = GI50 up to about 1.1 µM and inactive = higher.

What was measured:
Assay in all cases: inhibition of tumour cell growth, NCI panel, 48 h
786-0 = test system: 786-0
A498 = test system: A498
A549 = test system: A549
ACHN = test system: ACHN
BT-549 = test system: BT-549
CAKI-1 = test system: CAKI-1
CCRF-CEM = test system: CCRF-CEM
COLO 205 = test system: COLO 205
DU-145 = test system: DU-145
EKVX = test system: EKVX
HCC 2998 = test system: HCC 2998
HCT-116 = test system: HCT-116
HCT-15 = test system: HCT-15
HL-60 = test system: HL-60
HOP-62 = test system: HOP-62
HOP-92 = test system: HOP-92
HT-29 = test system: HT-29
Hs-578T = test system: Hs-578T
IGROV-1 = test system: IGROV-1
K562 = test system: K562
KM12 = test system: KM12
LOX IMVI = test system: LOX IMVI
M14 = test system: M14
MCF7 = test system: MCF7
MDA-MB-435 = test system: MDA-MB-435
MDA-N = test system: MDA-N
MOLT-4 = test system: MOLT-4
Malme-3M = test system: Malme-3M
NCI-H226 = test system: NCI-H226
NCI-H23 = test system: NCI-H23
NCI-H460 = test system: NCI-H460
NCI-H522 = test system: NCI-H522
NCI/ADR-RES = test system: NCI/ADR-RES
OVCAR-3 = test system: OVCAR-3
OVCAR-4 = test system: OVCAR-4
OVCAR-5 = test system: OVCAR-5
OVCAR-8 = test system: OVCAR-8
PC-3 = test system: PC-3
RPMI-8226 = test system: RPMI-8226
RXF 393 = test system: RXF 393
SF-268 = test system: SF-268
SF-295 = test system: SF-295
SF-539 = test system: SF-539
SK-MEL-28 = test system: SK-MEL-28
SK-MEL-2 = test system: SK-MEL-2
SK-MEL-5 = test system: SK-MEL-5
SK-OV-3 = test system: SK-OV-3
SN12C = test system: SN12C
SNB-19 = test system: SNB-19
SNB-75 = test system: SNB-75
SR = test system: SR
SW-620 = test system: SW-620
T47D = test system: T47D
UACC-257 = test system: UACC-257
UACC-62 = test system: UACC-62
UO-31 = test system: UO-31
MDA-MB-231 = test system: MDA-MB-231
TK-10 = test system: TK-10
U-251 = test system: U-251

Measured: GI50

COc1ccc(/C=C2\C[C@H]3[C@@H]4CCC5=CC(=O)CC[C@]5(C)[C@H]4CC[C@]3(C)C2=O)cc1OC
9.25 µM: HCT-15
inactive: 786-0 35.8 µM | A498 3.25 µM | A549 5.58 µM | ACHN 9.04 µM | BT-549 6.34 µM | CAKI-1 6.97 µM | CCRF-CEM 2.19 µM | COLO 205 3.1 µM | DU-145 41.2 µM | EKVX 8.41 µM | HCC 2998 21.8 µM | HCT-116 8.05 µM | HL-60 1.37 µM | HOP-92 5.27 µM | HT-29 6.87 µM | Hs-578T 45.8 µM | IGROV-1 10.4 µM | K562 3.8 µM | LOX IMVI 11.9 µM | M14 14.9 µM | MCF7 4.67 µM | MDA-MB-435 5.48 µM | MDA-N 5.94 µM | MOLT-4 3.44 µM | Malme-3M 8.65 µM | NCI-H226 11.1 µM | NCI-H23 17.6 µM | NCI-H460 6.93 µM | NCI-H522 2.74 µM | NCI/ADR-RES 6.27 µM | OVCAR-3 17.5 µM | OVCAR-4 13.2 µM | OVCAR-5 32.4 µM | OVCAR-8 2.6 µM | PC-3 5.51 µM | RPMI-8226 3.89 µM | RXF 393 18 µM | SF-268 > 100 µM | SF-539 40 µM | SK-MEL-28 40.7 µM | SK-MEL-2 4.13 µM | SK-MEL-5 2.46 µM | SN12C 14.4 µM | SNB-19 44.6 µM | SNB-75 > 100 µM | SR 2.81 µM | SW-620 21.1 µM | T47D 3.56 µM | UACC-257 4.6 µM | UACC-62 6.24 µM | UO-31 2.42 µM
active: HOP-62 0.332 µM | KM12 0.279 µM | SF-295 0.0635 µM | SK-OV-3 0.0627 µM

COC1CC(OC2CCC3(C)C(=CCC4C3C(OC(C)=O)C(OC(=O)CC(C)C)C3(C)C(C(C)=O)CCC43O)C2)OC(C)C1OC1CC(OC)C(OC2CC(OC)C(OC3OC(C)C(O)C(OC)C3O)C(C)O2)C(C)O1 (centres undefined)
inactive: 786-0 24.9 µM | A498 > 100 µM | A549 37.2 µM | ACHN 31.6 µM | BT-549 24.5 µM | CAKI-1 44 µM | CCRF-CEM 22.6 µM | COLO 205 22 µM | DU-145 40.6 µM | EKVX 34.8 µM | HCC 2998 24.4 µM | HCT-116 26.7 µM | HL-60 14.9 µM | HOP-62 > 100 µM | HOP-92 22.5 µM | HT-29 19.9 µM | Hs-578T 49.8 µM | IGROV-1 32.4 µM | K562 36.6 µM | KM12 33.1 µM | LOX IMVI 20.2 µM | M14 38.7 µM | MCF7 21.9 µM | MDA-MB-231 26.5 µM | MDA-MB-435 25.1 µM | MDA-N 32.1 µM | MOLT-4 23.8 µM | Malme-3M 43 µM | NCI-H226 30.5 µM | NCI-H23 34 µM | NCI-H460 28.7 µM | NCI-H522 37.9 µM | OVCAR-3 43.9 µM | OVCAR-4 39.5 µM | OVCAR-5 86.7 µM | OVCAR-8 29.2 µM | PC-3 18.5 µM | RPMI-8226 17.7 µM | RXF 393 20.1 µM | SF-268 54.1 µM | SF-295 33 µM | SF-539 21.9 µM | SK-MEL-28 36 µM | SK-MEL-2 24.7 µM | SK-MEL-5 18.7 µM | SK-OV-3 51.1 µM | SN12C 34.8 µM | SNB-19 86.5 µM | SNB-75 24.4 µM | SR 31.5 µM | SW-620 31.3 µM | T47D 38.2 µM | TK-10 25.9 µM | U-251 37.8 µM | UACC-257 28.8 µM | UACC-62 26.1 µM | UO-31 26.1 µM
27.3 µM: HCT-15
